Source: patent US20260035387A1 (BIOGEN MA INC., priority 2022, published 2026)

System: mutant Huntington (HTT) protein
Experiment: HTT Mutant HTRF iPSC assay (mHTT protein lowering)
Assay type: cell-based
Details: human iPSC derived from a HTT patient with a poly-Q49 mutation

Question: `COc1c(NC(=O)c2nc3ccc(N4CCC(N5CCC5)C4)nc3s2)cn2cc(C)nc2c1F` (racemic) [Compound 126, 5-(3-(azetidin-1-yl)pyrrolidin-1-yl)-N-(8-fluoro-7-methoxy-2-methylimidazo[1,2-a]pyridin-6-yl)thiazolo[5,4-b]pyridine-2-carboxamide] was tested. Which IC50 did it give?
Answer: Its IC50 is under 0.1 µM.

Question: `Cc1cn2cc(NC(=O)c3cc4ncc(C5CCC(N)CC5)nc4s3)cc(F)c2n1` (racemic) [Compound 141, 3-(4-aminocyclohexyl)-N-(8-fluoro-2-methylimidazo[1,2-a]pyridin-6-yl)thieno[2,3-b]pyrazine-6-carboxamide] was tested. Which IC50 did it give?
Answer: Its IC50 is 1 to 9 µM.

Question: For `Cc1cn2cc(NC(=O)c3cc4ncc(C5=CCCC(N)C5)nc4s3)cc(F)c2n1` (racemic) [Compound 143, 3-(5-aminocyclohex-1-en-1-yl)-N-(8-fluoro-2-methylimidazo[1,2-a]pyridin-6-yl)thieno[2,3-b]pyrazine-6-carboxamide], which IC50 is on record?
Answer: The IC50 was 0.1 to 1 µM.

Question: For `Cc1cn2cc(NC(=O)c3cc4ncc(C5=CC(N)CCC5)nc4s3)cc(F)c2n1` (racemic) [Compound 145, 3-(3-aminocyclohex-1-en-1-yl)-N-(8-fluoro-2-methylimidazo[1,2-a]pyridin-6-yl)thieno[2,3-b]pyrazine-6-carboxamide], which IC50 is on record?
Answer: Its IC50 is 0.1 to 1 µM.

Question: For `Cc1cn2cc(NC(=O)c3cc4ccc(OC5C[C@@H](C)N[C@@H](C)C5)nc4s3)cc(F)c2n1` (mixture of isomers) [Compound 156], which IC50 is on record?
Answer: Its IC50 is under 0.1 µM.

Question: For `Cc1cn2cc(NC(=O)c3cc4ccc(OC5CCNC(C)(C)C5)nc4s3)cc(F)c2n1` (racemic) [Compound 158, 6-((2,2-dimethylpiperidin-4-yl)oxy)-N-(8-fluoro-2-methylimidazo[1,2-a]pyridin-6-yl)thieno[2,3-b]pyridine-2-carboxamide], which IC50 is on record?
Answer: The IC50 was under 0.1 µM.

Question: `Cc1cn2cc(NC(=O)c3cc4ccc(OC5CCN(C)C5)nc4s3)cc(F)c2n1` (racemic) [Compound 159, N-(8-fluoro-2-methylimidazo[1,2-a]pyridin-6-yl)-6-((1-methylpyrrolidin-3-yl)oxy)thieno[2,3-b]pyridine-2-carboxamide] was tested. Which IC50 did it give?
Answer: The IC50 was under 0.1 µM.

Question: With `CCN1CCC(Oc2ccc3cc(C(=O)Nc4cc(F)c5nc(C)cn5c4)sc3n2)C1` (racemic) [Compound 161, 6-((1-ethylpyrrolidin-3-yl)oxy)-N-(8-fluoro-2-methylimidazo[1,2-a]pyridin-6-yl)thieno[2,3-b]pyridine-2-carboxamide] as the compound, how does the IC50 read?
Answer: The IC50 was under 0.1 µM.

Question: For `COc1c(NC(=O)c2cc3ccc(N4CCC(N5CCC5)C4)nc3s2)cc2cn(C)nc2c1F` (racemic) [Compound 180, rac-(R)-6-(3-(azetidin-1-yl)pyrrolidin-1-yl)-N-(7-fluoro-6-methoxy-2-methyl-2H-indazol-5-yl)thieno[2,3-b]pyridine-2-carboxamide], which IC50 is on record?
Answer: The IC50 was under 0.1 µM.

Question: `Cc1cn2cc(NC(=O)c3cc4ccc(N5CC[C@@H]6CN(C)C[C@@H]65)nc4s3)nc(C)c2n1` (racemic) [Compound 194, N-(2,8-dimethylimidazo[1,2-a]pyrazin-6-yl)-6-((3aR,6aR)-5-methylhexahydropyrrolo[3,4-b]pyrrol-1(2H)-yl)thieno[2,3-b]pyridine-2-carboxamide] was tested. Which IC50 did it give?
Answer: Its IC50 is under 0.1 µM.

Question: For `Cc1cn2cc(NC(=O)c3cc4ccc(N5CCC6CNCC65)nc4s3)nc(C)c2n1` (racemic) [Compound 215, N-(2,8-dimethylimidazo[1,2-a]pyrazin-6-yl)-6-(hexahydropyrrolo[3,4-b]pyrrol-1(2H)-yl)thieno[2,3-b]pyridine-2-carboxamide], which IC50 is on record?
Answer: Its IC50 is under 0.1 µM.

Question: For `COc1c(NC(=O)c2cc3ccc(N4CCC5(CCCN5C)C4)nc3s2)cc2cn(C)nc2c1F` (racemic) [Compound 231, N-(7-fluoro-6-methoxy-2-methyl-2H-indazol-5-yl)-6-(1-methyl-1,7-diazaspiro[4.4]nonan-7-yl)thieno[2,3-b]pyridine-2-carboxamide], which IC50 is on record?
Answer: The IC50 was under 0.1 µM.

Question: Which IC50 does the source give for `COc1cc2nn(C)cc2cc1NC(=O)c1cc2ccc(N[C@@H]3CC(C)(C)NC(C)(C)[C@@H]3F)nc2s1` (racemic) [Compound 260, 6-(((3R,4R)-3-fluoro-2,2,6,6-tetramethylpiperidin-4-yl)amino)-N-(6-methoxy-2-methyl-2H-indazol-5-yl)thieno[2,3-b]pyridine-2-carboxamide] here?
Answer: Its IC50 is under 0.1 µM.

Question: For `COc1cc2nn(C)cc2cc1NC(=O)c1cc2ccc(N[C@H]3CC(C)(C)NC(C)(C)[C@@H]3F)nc2s1` (racemic) [Compound 261, 6-(((3R,4S)-3-fluoro-2,2,6,6-tetramethylpiperidin-4-yl)amino)-N-(6-methoxy-2-methyl-2H-indazol-5-yl)thieno[2,3-b]pyridine-2-carboxamide], which IC50 is on record?
Answer: The IC50 was under 0.1 µM.

Question: Which IC50 does the source give for `Cc1cn2cc(NC(=O)c3cc4ccc([C@H]5CCCNC5)nc4s3)cc(F)c2n1` (single isomer, unassigned) [Compound 81] here?
Answer: Its IC50 is under 0.1 µM.

Question: How did the IC50 turn out when `Cc1cn2cc(NC(=O)c3cc4ccc([C@@H]5CCCNC5)nc4s3)cc(F)c2n1` (single isomer, unassigned) [Compound 82] was run?
Answer: The IC50 was under 0.1 µM.

Question: Which IC50 does the source give for `Cc1cn2cc(NC(=O)c3nc4ccc(N5CCC6(CCN6)C5)nc4s3)cc(F)c2n1` (single isomer, unassigned) [Compound 97] here?
Answer: Its IC50 is under 0.1 µM.

Question: `Cc1cn2cc(NC(=O)c3nc4ccc(N5CCC(N6CCC6)C5)nc4s3)cc(F)c2n1` (single isomer, unassigned) [Compound 101] was tested. Which IC50 did it give?
Answer: Its IC50 is under 0.1 µM.

Question: For `Cc1cn2cc(NC(=O)c3nc4ccc(N5CCC6(CCN6)C5)nc4s3)cc(F)c2n1` (single isomer, unassigned) [Compound 111], which IC50 is on record?
Answer: Its IC50 is under 0.1 µM.

Question: For `COc1c(NC(=O)c2nc3ccc(N4CCC5(CCCN5C)C4)nc3s2)cc2cn(C)nc2c1F` (single isomer, unassigned) [Compound 124], which IC50 is on record?
Answer: Its IC50 is under 0.1 µM.

Question: For `COc1c(NC(=O)c2nc3ccc(N4CCC5(CCCN5C)C4)nc3s2)cn2cc(C)nc2c1F` (single isomer, unassigned) [Compound 127], which IC50 is on record?
Answer: Its IC50 is under 0.1 µM.

Question: Which IC50 does the source give for `COc1c(NC(=O)c2nc3ccc(N4CCC5(CCCN5C)C4)nc3s2)cn2cc(C)nc2c1F` (single isomer, unassigned) [Compound 128] here?
Answer: The IC50 was under 0.1 µM.

Question: `COc1cc(NC(=O)c2cc3nc(N4CCC5(CCCN5C)C4)ccc3o2)cn2cc(C)nc12` (single isomer, unassigned) [Compound 174] was tested. Which IC50 did it give?
Answer: Its IC50 is under 0.1 µM.

Question: Which IC50 does the source give for `COc1cn2nc(C)cc2cc1NC(=O)c1cc2nc(N3CCC4(CCCN4C)C3)ccc2o1` (single isomer, unassigned) [Compound 175] here?
Answer: Its IC50 is under 0.1 µM.

Question: With `COc1cc2nn(C)cc2cc1NC(=O)c1cc2ccc(C3CCN(C)C3)nc2s1` (single isomer, unassigned) [Compound 177] as the compound, how does the IC50 read?
Answer: The IC50 was under 0.1 µM.

Question: `Cc1cn2cc(NC(=O)c3cc4ccc(C5CCN(C)C5)nc4s3)cc(F)c2n1` (single isomer, unassigned) [Compound 181] was tested. Which IC50 did it give?
Answer: The IC50 was under 0.1 µM.

Question: How did the IC50 turn out when `COc1cc2nn(C)cc2cc1NC(=O)c1cc2ccc(C3CCCN(C)C3)nc2s1` (single isomer, unassigned) [Compound 185] was run?
Answer: The IC50 was under 0.1 µM.

Question: With `COc1cc2nn(C)cc2cc1NC(=O)c1cc2ccc(C3CCCN(C)C3)nc2s1` (single isomer, unassigned) [Compound 186] as the compound, how does the IC50 read?
Answer: The IC50 was under 0.1 µM.

Question: With `Cc1cn2cc(NC(=O)c3cc4ccc(C5CCCN(C)C5)nc4s3)nc(C)c2n1` (single isomer, unassigned) [Compound 187] as the compound, how does the IC50 read?
Answer: The IC50 was 0.1 to 1 µM.

Question: `COc1nc(NC(=O)c2cc3ccc(N4CCC(N(C)C)C4)nc3s2)cn2cc(C)nc12` (single isomer, unassigned) [Compound 198] was tested. Which IC50 did it give?
Answer: Its IC50 is under 0.1 µM.

Question: For `COc1nc(NC(=O)c2cc3ccc(N4CCC(N(C)C)C4)nc3s2)cn2cc(C)nc12` (single isomer, unassigned) [Compound 199], which IC50 is on record?
Answer: The IC50 was under 0.1 µM.

Question: Which IC50 does the source give for `COc1cn2nc(C)cc2cc1NC(=O)c1cc2ccc(N3CCC(N(C)C)C3)nc2s1` (single isomer, unassigned) [Compound 205] here?
Answer: Its IC50 is under 0.1 µM.

Question: With `COc1cn2nc(C)cc2cc1NC(=O)c1cc2ccc(N3CCC(N(C)C)C3)nc2s1` (single isomer, unassigned) [Compound 206] as the compound, how does the IC50 read?
Answer: Its IC50 is under 0.1 µM.

Question: With `Cc1cn2cc(NC(=O)c3cc4ccc(N5CCC(NCC6CC6)C5)nc4s3)cc(F)c2n1` (single isomer, unassigned) [Compound 210] as the compound, how does the IC50 read?
Answer: The IC50 was under 0.1 µM.

Question: Which IC50 does the source give for `CCNC1CCN(c2ccc3cc(C(=O)Nc4cc5cc(C)nn5cc4OC)sc3n2)C1` (single isomer, unassigned) [Compound 212] here?
Answer: The IC50 was under 0.1 µM.

Question: How did the IC50 turn out when `CCNC1CCN(c2ccc3cc(C(=O)Nc4cc5cc(C)nn5cc4OC)sc3n2)C1` (single isomer, unassigned) [Compound 213] was run?
Answer: Its IC50 is under 0.1 µM.

Question: Which IC50 does the source give for `COc1cc2nn(C)cc2cc1NC(=O)c1cc2ccc(N3CC[C@]4(CCCN4C)C3)nc2s1` (single isomer, unassigned) [Compound 222] here?
Answer: Its IC50 is under 0.1 µM.

Question: How did the IC50 turn out when `COc1cc2nn(C)cc2cc1NC(=O)c1cc2ccc(N3CC[C@@]4(CCCN4C)C3)nc2s1` (single isomer, unassigned) [Compound 223] was run?
Answer: Its IC50 is under 0.1 µM.

Question: Which IC50 does the source give for `COc1cn2nc(C)cc2cc1NC(=O)c1cc2ccc(N3CCC4(CCCN4C)C3)nc2s1` (single isomer, unassigned) [Compound 224] here?
Answer: Its IC50 is under 0.1 µM.

Question: For `COc1cn2nc(C)cc2cc1NC(=O)c1cc2ccc(N3CCC4(CCCN4C)C3)nc2s1` (single isomer, unassigned) [Compound 225], which IC50 is on record?
Answer: Its IC50 is under 0.1 µM.

Question: Which IC50 does the source give for `COc1c(NC(=O)c2cc3ccc(N4CCC5(CCCN5C)C4)nc3s2)cn2cc(C)nc2c1F` (single isomer, unassigned) [Compound 239] here?
Answer: The IC50 was under 0.1 µM.

Question: `COc1cc2nn(C)cc2cc1NC(=O)c1cc2ccc(N3CC[C@@H](N(C)C)C3)nc2s1` (single isomer, unassigned) [Compound 241] was tested. Which IC50 did it give?
Answer: Its IC50 is under 0.1 µM.

Question: `COc1c(NC(=O)c2cc3ccc(N4CCC5(CCCN5C)C4)nc3s2)cn2cc(C)nc2c1F` (single isomer, unassigned) [Compound 242] was tested. Which IC50 did it give?
Answer: Its IC50 is under 0.1 µM.

Question: With `COc1cc2nn(C)cc2cc1NC(=O)c1cc2ccc(N3CCC(N(C)C)C3)nc2s1` (single isomer, unassigned) [Compound 244] as the compound, how does the IC50 read?
Answer: Its IC50 is under 0.1 µM.

Question: How did the IC50 turn out when `COc1cc2nc(C)cn2cc1NC(=O)c1cc2ccc(N3CC[C@]4(CCCN4C)C3)nc2s1` (single isomer, unassigned) [Compound 251] was run?
Answer: The IC50 was 0.1 to 1 µM.

Question: With `COc1cc2nc(C)cn2cc1NC(=O)c1cc2ccc(N3CC[C@@]4(CCCN4C)C3)nc2s1` (single isomer, unassigned) [Compound 252] as the compound, how does the IC50 read?
Answer: The IC50 was under 0.1 µM.

Question: For `Cc1cn2cc(NC(=O)c3cc4ccc(N5CC[C@@]6(CCCN6C)C5)nc4s3)nc(C(F)F)c2n1` (single isomer, unassigned) [Compound 254], which IC50 is on record?
Answer: Its IC50 is under 0.1 µM.
